According to PubChem BioAssay AID1259407 (Chemical Carcinogenesis Research Information System (CCRIS), 2018):
The source made the active and inactive calls. How the calls were made is not given here.

Test system: CCRIS mutagenicity, Ames/micronucleus/aberration tests
Assay: CCRIS mutagenicity studies
[1] = Test System: AMES SALMONELLA TYPHIMURIUM, Strain/Indicator: TA98, Metabolic Activation: NONE, Method: PREINCUBATION
[2] = Test System: AMES SALMONELLA TYPHIMURIUM, Strain/Indicator: TA100, Metabolic Activation: NONE, Method: PREINCUBATION
[3] = Test System: AMES SALMONELLA TYPHIMURIUM, Strain/Indicator: TA1535, Metabolic Activation: NONE, Method: PREINCUBATION
[4] = Test System: AMES SALMONELLA TYPHIMURIUM, Strain/Indicator: TA1537, Metabolic Activation: NONE, Method: PREINCUBATION
[5] = Test System: AMES SALMONELLA TYPHIMURIUM, Strain/Indicator: TA100, Metabolic Activation: RAT, LIVER, S-9, AROCLOR 1254, Method: STANDARD PLATE

Question: C=C1CC(=O)O1 was tested. Which mutagenic call [1] did it give?
Answer: Its mutagenic call is “inactive; negative”.

Question: And the mutagenic call (Test System: AMES SALMONELLA TYPHIMURIUM, Strain/Indicator: TA98, Metabolic Activation: RAT LIVER S-9, PHENOBARBITAL AND BETA-NAPHTHOFLAVONE, Method: PREINCUBATION)?
Answer: Its mutagenic call is “inactive; negative”.

Question: What about the mutagenic call [2] of the same compound?
Answer: The mutagenic call was “inactive; negative”.

Question: What about the mutagenic call (Test System: AMES SALMONELLA TYPHIMURIUM, Strain/Indicator: TA100, Metabolic Activation: RAT LIVER S-9, PHENOBARBITAL AND BETA-NAPHTHOFLAVONE, Method: PREINCUBATION) of the same compound?
Answer: Its mutagenic call is “inactive; negative”.

Question: And the mutagenic call (Test System: AMES SALMONELLA TYPHIMURIUM, Strain/Indicator: TA102, Metabolic Activation: NONE, Method: PREINCUBATION)?
Answer: Its mutagenic call is “inactive; negative”.

Question: And the mutagenic call (Test System: AMES SALMONELLA TYPHIMURIUM, Strain/Indicator: TA102, Metabolic Activation: RAT LIVER S-9, PHENOBARBITAL AND BETA-NAPHTHOFLAVONE, Method: PREINCUBATION)?
Answer: Its mutagenic call is “inactive; negative”.

Question: What about the mutagenic call (Test System: AMES SALMONELLA TYPHIMURIUM, Strain/Indicator: TA104, Metabolic Activation: NONE, Method: PREINCUBATION) of the same compound?
Answer: The mutagenic call was “inactive; negative”.

Question: And the mutagenic call (Test System: AMES SALMONELLA TYPHIMURIUM, Strain/Indicator: TA104, Metabolic Activation: RAT LIVER S-9, PHENOBARBITAL AND BETA-NAPHTHOFLAVONE, Method: PREINCUBATION)?
Answer: Its mutagenic call is “inactive; negative”.

Question: And the mutagenic call [3]?
Answer: Its mutagenic call is “inactive; negative”.

Question: What about the mutagenic call (Test System: AMES SALMONELLA TYPHIMURIUM, Strain/Indicator: TA1535, Metabolic Activation: RAT LIVER S-9, PHENOBARBITAL AND BETA-NAPHTHOFLAVONE, Method: PREINCUBATION) of the same compound?
Answer: The mutagenic call was “inactive; negative”.

Question: And the mutagenic call [4]?
Answer: The mutagenic call was “inactive; negative”.

Question: And the mutagenic call (Test System: AMES SALMONELLA TYPHIMURIUM, Strain/Indicator: TA1537, Metabolic Activation: RAT LIVER S-9, PHENOBARBITAL AND BETA-NAPHTHOFLAVONE, Method: PREINCUBATION)?
Answer: Its mutagenic call is “inactive; negative”.

Question: And the mutagenic call (Test System: E.COLI, Strain/Indicator: WP2UVRA/PKM101, Metabolic Activation: NONE, Method: PREINCUBATION)?
Answer: The mutagenic call was “inactive; negative”.

Question: And the mutagenic call (Test System: E.COLI, Strain/Indicator: WP2UVRA/PKM101, Metabolic Activation: RAT LIVER S-9, PHENOBARBITAL AND BETA-NAPHTHOFLAVONE, Method: PREINCUBATION)?
Answer: Its mutagenic call is “inactive; negative”.

Question: And the mutagenic call (Test System: E.COLI, Strain/Indicator: WP2UVRA, Metabolic Activation: NONE, Method: PREINCUBATION)?
Answer: The mutagenic call was “inactive; negative”.

Question: What about the mutagenic call (Test System: E.COLI, Strain/Indicator: WP2UVRA, Metabolic Activation: RAT LIVER S-9, PHENOBARBITAL AND BETA-NAPHTHOFLAVONE, Method: PREINCUBATION) of the same compound?
Answer: The mutagenic call was “inactive; negative”.

Question: Which mutagenic call [5] does the source give for O=C1CC2=C(CCCC2)c2c1c1c(c3c2=CC=C3)C=CC=1 here?
Answer: The mutagenic call was “inactive; negative”.

Question: Which results are given for COC(=O)C(c1ccccc1)C1CCCCN1 (stereo unspecified)?
Answer: mutagenic call (End Point: IN VITRO CHROMOSOMAL ABERRATIONS, Test System: CHINESE HAMSTER OVARY CELLS, Metabolic Activation: NONE): inactive; negative; mutagenic call (End Point: IN VITRO CHROMOSOMAL ABERRATIONS, Test System: CHINESE HAMSTER OVARY CELLS, Metabolic Activation: RAT, LIVER, S-9, AROCLOR 1254): active; positive; mutagenic call (End Point: In vivo chromosomal aberrations, Test System: Peripheral blood lymphocytes, Species: Monkey, Strain/Sex: Rhesus/Male, Route: Oral): inactive; negative; mutagenic call (End Point: In vivo micronucleus, Test System: Peripheral blood lymphocytes, Species: Monkey, Strain/Sex: Rhesus/Male, Route: Oral): inactive; negative; mutagenic call (Test System: AMES SALMONELLA TYPHIMURIUM, Strain/Indicator: TA97, Metabolic Activation: HAMSTER, LIVER, S-9, AROCLOR 1254 (10 OR 30%), Method: PREINCUBATION): inactive; negative; mutagenic call (Test System: AMES SALMONELLA TYPHIMURIUM, Strain/Indicator: TA97, Metabolic Activation: NONE, Method: PREINCUBATION): inactive; negative; mutagenic call (Test System: AMES SALMONELLA TYPHIMURIUM, Strain/Indicator: TA97, Metabolic Activation: RAT, LIVER, S-9, AROCLOR 1254 (10 OR 30%), Method: PREINCUBATION): inactive; negative; mutagenic call (Test System: AMES SALMONELLA TYPHIMURIUM, Strain/Indicator: TA98, Metabolic Activation: HAMSTER, LIVER, S-9, AROCLOR 1254 (10%), Method: PREINCUBATION): inactive; negative; mutagenic call (Test System: AMES SALMONELLA TYPHIMURIUM, Strain/Indicator: TA98, Metabolic Activation: HAMSTER, LIVER, S-9, AROCLOR 1254 (30%), Method: PREINCUBATION): inactive; negative; mutagenic call [1]: inactive; negative; mutagenic call (Test System: AMES SALMONELLA TYPHIMURIUM, Strain/Indicator: TA98, Metabolic Activation: RAT, LIVER, S-9, AROCLOR 1254 (10%), Method: PREINCUBATION): inactive; negative; mutagenic call (Test System: AMES SALMONELLA TYPHIMURIUM, Strain/Indicator: TA98, Metabolic Activation: RAT, LIVER, S-9, AROCLOR 1254 (30%), Method: PREINCUBATION): inactive; negative; mutagenic call (Test System: AMES SALMONELLA TYPHIMURIUM, Strain/Indicator: TA100, Metabolic Activation: HAMSTER, LIVER, S-9, AROCLOR 1254 (10%), Method: PREINCUBATION): inactive; negative; mutagenic call (Test System: AMES SALMONELLA TYPHIMURIUM, Strain/Indicator: TA100, Metabolic Activation: HAMSTER, LIVER, S-9, AROCLOR 1254 (30%), Method: PREINCUBATION): inactive; negative; mutagenic call [2]: inactive; negative; mutagenic call (Test System: AMES SALMONELLA TYPHIMURIUM, Strain/Indicator: TA100, Metabolic Activation: RAT, LIVER, S-9, AROCLOR 1254 (10%), Method: PREINCUBATION): inactive; negative; mutagenic call (Test System: AMES SALMONELLA TYPHIMURIUM, Strain/Indicator: TA100, Metabolic Activation: RAT, LIVER, S-9, AROCLOR 1254 (30%), Method: PREINCUBATION): inactive; negative; mutagenic call (Test System: AMES SALMONELLA TYPHIMURIUM, Strain/Indicator: TA1535, Metabolic Activation: HAMSTER, LIVER, S-9, AROCLOR 1254 (10%), Method: PREINCUBATION): inactive; negative; mutagenic call (Test System: AMES SALMONELLA TYPHIMURIUM, Strain/Indicator: TA1535, Metabolic Activation: HAMSTER, LIVER, S-9, AROCLOR 1254 (30%), Method: PREINCUBATION): inactive; negative; mutagenic call [3]: inactive; negative; mutagenic call (Test System: AMES SALMONELLA TYPHIMURIUM, Strain/Indicator: TA1535, Metabolic Activation: RAT, LIVER, S-9, AROCLOR 1254 (10%), Method: PREINCUBATION): inactive; negative; mutagenic call (Test System: AMES SALMONELLA TYPHIMURIUM, Strain/Indicator: TA1535, Metabolic Activation: RAT, LIVER, S-9, AROCLOR 1254 (30%), Method: PREINCUBATION): inactive; negative; mutagenic call (Test System: AMES SALMONELLA TYPHIMURIUM, Strain/Indicator: TA1537, Metabolic Activation: HAMSTER, LIVER, S-9, AROCLOR 1254 (10%), Method: PREINCUBATION): inactive; negative; mutagenic call [4]: inactive; negative; mutagenic call (Test System: AMES SALMONELLA TYPHIMURIUM, Strain/Indicator: TA1537, Metabolic Activation: RAT, LIVER, S-9, AROCLOR 1254 (10%), Method: PREINCUBATION): inactive; negative; mutagenic call (Test System: Rhesus monkey peripheral blood lymphocytes, Strain/Indicator: HPRT/6-Thioguanine, Metabolic Activation: None, Method: Determined at 3-mo intervals from test subjects exposed to test chemical for 20 mo): inactive; negative

Question: Which results are given for COc1cc(C[C@@H]2NCCc3cc(O)c(O)cc32)cc(OC)c1OC?
Answer: mutagenic call (Test System: AMES SALMONELLA TYPHIMURIUM, Strain/Indicator: TA98, Metabolic Activation: NONE, Method: STANDARD PLATE): inactive; negative; mutagenic call (Test System: AMES SALMONELLA TYPHIMURIUM, Strain/Indicator: TA98, Metabolic Activation: RAT, LIVER, S-9, AROCLOR 1254, Method: STANDARD PLATE): inactive; negative; mutagenic call (Test System: AMES SALMONELLA TYPHIMURIUM, Strain/Indicator: TA100, Metabolic Activation: NONE, Method: STANDARD PLATE): inactive; negative; mutagenic call [5]: inactive; negative; mutagenic call (Test System: AMES SALMONELLA TYPHIMURIUM, Strain/Indicator: TA1535, Metabolic Activation: NONE, Method: STANDARD PLATE): inactive; negative; mutagenic call (Test System: AMES SALMONELLA TYPHIMURIUM, Strain/Indicator: TA1535, Metabolic Activation: RAT, LIVER, S-9, AROCLOR 1254, Method: STANDARD PLATE): inactive; negative; mutagenic call (Test System: AMES SALMONELLA TYPHIMURIUM, Strain/Indicator: TA1537, Metabolic Activation: NONE, Method: STANDARD PLATE): inactive; negative; mutagenic call (Test System: AMES SALMONELLA TYPHIMURIUM, Strain/Indicator: TA1537, Metabolic Activation: RAT, LIVER, S-9, AROCLOR 1254, Method: STANDARD PLATE): inactive; negative
